“And” between values parts separate entries of the source, which are not always exact repeats. Identical values can stand only once. Inconclusive results and toxic doses are left out. Rule for the calls: active = survival T/C of 150% or more; inactive = T/C below 125% in these data.
Test system: B6C3F1 mice, Lewis lung carcinoma iv, survival T/C
Test: NCI In Vivo Anticancer Drug Screen. Data for tumor model Lewis Lung Carcinoma (intravenous) in B6C3F1 mice
Settings: endpoint: median survival time, higher = longer survival
In short: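 Tumors were transplanted into mice, which were then dosed with compound or vehicle. Survival was recorded in each group, and the treated figure was divided by the control figure.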

[1] = dose: 12.5 mg/kg/injection, schedule: Q01DX009 (ip), vehicle: Klucel (hydroxypropylcellulose) (HPC)
[2] = dose: 25.0 mg/kg/injection, schedule: Q01DX009 (ip), vehicle: Klucel (hydroxypropylcellulose) (HPC)
[3] = dose: 50.0 mg/kg/injection, schedule: Q01DX009 (ip), vehicle: Klucel (hydroxypropylcellulose) (HPC)
[4] = dose: 100.0 mg/kg/injection, schedule: Q01DX009 (ip), vehicle: Klucel (hydroxypropylcellulose) (HPC)
[5] = dose: 200.0 mg/kg/injection, schedule: Q01DX009 (ip), vehicle: Klucel (hydroxypropylcellulose) (HPC)
[6] = dose: 0.75 mg/kg/injection, schedule: Q01DX009 (ip), vehicle: saline with Tween-80
[7] = dose: 1.5 mg/kg/injection, schedule: Q01DX009 (ip), vehicle: saline with Tween-80
[8] = dose: 3.0 mg/kg/injection, schedule: Q01DX009 (ip), vehicle: saline with Tween-80
[9] = dose: 12.5 mg/kg/injection, schedule: Q01DX009 (ip), vehicle: saline with Tween-80
[10] = dose: 25.0 mg/kg/injection, schedule: Q01DX009 (ip), vehicle: saline with Tween-80
[11] = dose: 50.0 mg/kg/injection, schedule: Q01DX009 (ip), vehicle: saline with Tween-80
[12] = dose: 12.5 mg/kg/injection, schedule: Q01DX009 (ip), vehicle: saline
[13] = dose: 25.0 mg/kg/injection, schedule: Q01DX009 (ip), vehicle: saline
[14] = dose: 50.0 mg/kg/injection, schedule: Q01DX009 (ip), vehicle: saline
[15] = dose: 100.0 mg/kg/injection, schedule: Q01DX009 (ip), vehicle: saline
[16] = dose: 200.0 mg/kg/injection, schedule: Q01DX009 (ip), vehicle: saline
[17] = dose: 400.0 mg/kg/injection, schedule: Q01DX009 (ip), vehicle: saline
[18] = dose: 6.25 mg/kg/injection, schedule: Q01DX009 (ip), vehicle: saline

Measured: T/C

C[C@]12CCC(=O)C=C1CC[C@@H]1[C@@H]2[C@@H](O)C[C@@]2(C)[C@H]1CC[C@]2(O)C(=O)CO
inactive: [1] 110 % of control | [2] 107 % of control | [3] 97 % of control | [4] 106 % of control | [5] 100 % of control

CN(C)CCN1C(=O)c2cccc3cc([N+](=O)[O-])cc(c23)C1=O
inactive: [6] 94 % of control | [7] 93 % of control | [8] 101 % of control | dose: 6.0 mg/kg/injection, schedule: Q01DX009 (ip), vehicle: saline with Tween-80 95 % of control

Clc1ccc(C2SC=Cc3ccccc32)cc1 (configuration not stated)
inactive: [2] 115 % of control | [3] 114 % of control | [4] 110 % of control | [5] 107 % of control | dose: 400.0 mg/kg/injection, schedule: Q01DX009 (ip), vehicle: Klucel (hydroxypropylcellulose) (HPC) 105 % of control

CCN(C)N=Nc1ccc(C(N)=O)cc1
inactive: dose: 6.25 mg/kg/injection, schedule: Q01DX009 (ip), vehicle: Klucel (hydroxypropylcellulose) (HPC) 95 % of control | [1] 104 % of control | [2] 111 % of control | [3] 122 % of control

Cc1ccc2nc(-c3ccc4nc(-c5ccc(N=Nc6ccc(-c7nc8ccc(-c9nc%10ccc(C)c(S(=O)(=O)O)c%10s9)cc8s7)cc6)cc5)sc4c3)sc2c1S(=O)(=O)O
inactive: dose: 12.5 mg/kg/injection, schedule: Q01DX009 (ip), vehicle: suspension in saline 95 % of control | dose: 25.0 mg/kg/injection, schedule: Q01DX009 (ip), vehicle: suspension in saline 98 % of control | dose: 50.0 mg/kg/injection, schedule: Q01DX009 (ip), vehicle: suspension in saline 107 % of control | dose: 100.0 mg/kg/injection, schedule: Q01DX009 (ip), vehicle: suspension in saline 107 % of control

O=C(Nc1cc(Cl)ccc1C(=O)O)c1cccc(C[n+]2ccccc2)c1
inactive: [9] 107 % of control | [10] 102 % of control | [11] 92 % of control | dose: 100.0 mg/kg/injection, schedule: Q01DX009 (ip), vehicle: saline with Tween-80 95 % of control | dose: 200.0 mg/kg/injection, schedule: Q01DX009 (ip), vehicle: saline with Tween-80 100 % of control and 102 % of control

CNC(=O)n1c(N)nc(-c2ccccc2)c1-c1ccccc1
inactive: dose: 6.25 mg/kg/injection, schedule: Q01DX009 (ip), vehicle: saline with Tween-80 102 % of control | [9] 103 % of control | [10] 103 % of control | [11] 102 % of control

Cc1cc2c(C(C)C)c(O)c(O)c(C=O)c2c(O)c1-c1c(C)cc2c(C(C)C)c(O)c(O)c(C=O)c2c1O
inactive: dose: 0.37 mg/kg/injection, schedule: Q01DX009 (ip), vehicle: saline with Tween-80 101 % of control | [6] 101 % of control | [7] 105 % of control | [8] 106 % of control

Cn1cnc([N+](=O)[O-])c1SCC(=O)O
inactive: [12] 100 % of control | [13] 107 % of control | [14] 103 % of control | [15] 93 % of control | [16] 104 % of control | [17] 96 % of control

Cn1cc(C2NC(=O)c3ccccc3N2)c2ccccc21 (configuration not stated)
inactive: [2] 104 % of control | [3] 105 % of control | [4] 100 % of control | [5] 104 % of control

O=C(/C=C(\Cl)C(=O)NO)NO
inactive: [18] 115 % of control | [12] 112 % of control | [14] 110 % of control | [15] 104 % of control

CCOC(=O)c1ccc(NN=NCCF)cc1
inactive: dose: 3.0 mg/kg/injection, schedule: Q01DX009 (ip), vehicle: distilled water + alcohol 98 % of control | dose: 3.12 mg/kg/injection, schedule: Q01DX009 (ip), vehicle: distilled water + Tween-80 104 % of control | dose: 6.0 mg/kg/injection, schedule: Q01DX009 (ip), vehicle: distilled water + alcohol 96 % of control | dose: 6.25 mg/kg/injection, schedule: Q01DX009 (ip), vehicle: distilled water + Tween-80 113 % of control | dose: 12.5 mg/kg/injection, schedule: Q01DX009 (ip), vehicle: distilled water + Tween-80 98 % of control | dose: 12.5 mg/kg/injection, schedule: Q01DX009 (ip), vehicle: distilled water + alcohol 103 % of control | dose: 25.0 mg/kg/injection, schedule: Q01DX009 (ip), vehicle: distilled water + Tween-80 113 % of control | dose: 25.0 mg/kg/injection, schedule: Q01DX009 (ip), vehicle: distilled water + alcohol 101 % of control | dose: 50.0 mg/kg/injection, schedule: Q01DX009 (ip), vehicle: distilled water + alcohol 98 % of control | dose: 100.0 mg/kg/injection, schedule: Q01DX009 (ip), vehicle: distilled water + alcohol 98 % of control

O=c1[nH]c(=O)n(C2CC(O)C(CO)O2)cc1F (configuration not stated)
inactive: dose: 147.0 mg/kg/injection, schedule: Q04DX003 (ip), vehicle: saline 102 % of control | dose: 210.0 mg/kg/injection, schedule: Q04DX003 (ip), vehicle: saline 118 % of control

COc1cc([C@@H]2c3cc4c(cc3[C@@H](OC3OC5COC(C)OC5C(O)C3O)[C@H]3COC(=O)[C@H]23)OCO4)cc(OC)c1O (some centres not stated)
inactive: dose: 0.5 mg/kg/injection, schedule: Q01DX009 (ip), vehicle: Klucel (hydroxypropylcellulose) (HPC) 101 % of control | dose: 1.0 mg/kg/injection, schedule: Q01DX009 (ip), vehicle: Klucel (hydroxypropylcellulose) (HPC) 102 % of control | dose: 2.0 mg/kg/injection, schedule: Q01DX009 (ip), vehicle: Klucel (hydroxypropylcellulose) (HPC) 113 % of control | dose: 2.0 mg/kg/injection, schedule: Q01DX009 (ip), vehicle: suspension in saline 113 % of control and 121 % of control | dose: 4.0 mg/kg/injection, schedule: Q01DX009 (ip), vehicle: Klucel (hydroxypropylcellulose) (HPC) 124 % of control | dose: 4.0 mg/kg/injection, schedule: Q01DX009 (ip), vehicle: suspension in saline 109 % of control
active: dose: 8.0 mg/kg/injection, schedule: Q01DX009 (ip), vehicle: suspension in saline 151 % of control | dose: 16.0 mg/kg/injection, schedule: Q01DX009 (ip), vehicle: suspension in saline 166 % of control and 252 % of control

O=C1C(NCC(O)CO)=C(N2CC2)C(=O)C(NCC(O)CO)=C1N1CC1 (configuration not stated)
inactive: dose: 0.5 mg/kg/injection, schedule: Q01DX009 (ip), vehicle: saline 100 % of control | dose: 1.0 mg/kg/injection, schedule: Q01DX009 (ip), vehicle: saline 98 % of control | dose: 2.0 mg/kg/injection, schedule: Q01DX009 (ip), vehicle: saline 108 % of control | dose: 4.0 mg/kg/injection, schedule: Q01DX009 (ip), vehicle: saline 116 % of control

CCCC(=O)OCC1OC(n2cnc3c(=S)nc[nH]c32)C(OC(=O)CCC)C1OC(=O)CCC (configuration not stated)
inactive: [9] 99 % of control | [10] 99 % of control | [11] 94 % of control

COC(=O)Nc1nc2ccc(C3(c4ccc(F)cc4)OCCO3)cc2[nH]1
inactive: dose: 1.56 mg/kg/injection, schedule: Q01DX009 (ip), vehicle: saline 97 % of control | dose: 3.12 mg/kg/injection, schedule: Q01DX009 (ip), vehicle: saline 106 % of control | [18] 102 % of control | [12] 104 % of control | [13] 117 % of control

Cn1cnc([N+](=O)[O-])c1Sc1ncn[nH]1
inactive: [12] 104 % of control | [13] 111 % of control | [14] 124 % of control | [15] 116 % of control

CCCCCC[C@@H](O)C/C=C\CCCCCCCC(=O)OCCO
inactive: [13] 91 % of control | [14] 100 % of control | [15] 99 % of control | [16] 101 % of control | [17] 99 % of control | dose: 800.0 mg/kg/injection, schedule: Q01DX009 (ip), vehicle: saline 100 % of control

CC(=O)N(C)C
inactive: dose: 122.5 mg/kg/injection, schedule: Q01DX009 (ip), vehicle: saline 88 % of control | dose: 225.0 mg/kg/injection, schedule: Q01DX009 (ip), vehicle: saline 95 % of control | dose: 450.0 mg/kg/injection, schedule: Q01DX009 (ip), vehicle: saline 110 % of control | dose: 900.0 mg/kg/injection, schedule: Q01DX009 (ip), vehicle: saline 100 % of control | dose: 1800.0 mg/kg/injection, schedule: Q01DX009 (ip), vehicle: saline 93 % of control | dose: 3600.0 mg/kg/injection, schedule: Q01DX009 (ip), vehicle: saline 104 % of control

Reference: PubChem BioAssay AID276 (DTP/NCI, 2004)
